Values joined by “and” are separate entries in the source; they are usually repeats but may differ in a detail not shown here. Identical values can stand only once.
Assays:
METTL3 = biological target: T1, METTL3 (Homo sapiens, UniProt Q86U44); test: Cellular degradation assay (Western blot), METTL3 in MOLM-13; assay type: cell-based; settings: MOLM-13, 24 h, 2 μM compound
T1 construct: METTL3–14 degradation up to 70% of the endogenous level; endogenous in cells; host or cells: MOLM-13, PC3, DU145
Procedure: (§1) MOLM-13, NOMO-1, THP-1, Kasumi-1, PC3, and DU145 cell lines were obtained from DSMZ-German Collection of Microorganisms and Cell Cultures GmbH. Cells were cultured in RPMI 1640 medium (11875093, Thermo Fisher Scientific) containing 10% FBS (16140071, Thermo Fisher Scientific) and 1% penicillin-streptomycin (15140122, Thermo Fisher Scientific) in 5% CO2 at 37 °C in a humidified incubator, with maintained cell densities at 0.5–1 × 10^6 cells/mL. All cell lines were tested negative for mycoplasma contamination (PCR-based assay by Microsynth, Switzerland).
(§2) METTL3 (and METTL14) protein degradation was monitored by Western blot. Cells were treated with the indicated concentration of PROTACs or DMSO control (0.1% (v/v)) for 24h, 37 °C with 5% CO2. Samples were then collected and lysed with RIPA buffer with added protease inhibitors (11697498001, Roche). After SDS-PAGE, proteins were transferred to a nitrocellulose membrane, blocked (with 5% milk, 0.5% BSA in TBST buffer), and incubated overnight with primary antibodies. The following antibodies were used: GAPDH (no. 2118, Cell Signaling, 1:4000), β-actin (ab8226, Abcam, 1:2000), METTL3 (ab195352, Abcam, 1:1000), and METTL14 (ab220031, Abcam, 1:1000). Membranes were scanned using an LI-COR Odyssey DLx imager after incubation with appropriate secondary antibodies (antimouse IgG IRDye 680RD (926–68072, LI-COR, 1:10000) and goat anti-Rabbit IgG IRDye 800CW (926–32211, LI-COR, 1:10000)). Densitometry was performed in Image Studio Lite software and analyzed in GraphPad Prism 9.

METTL3-14 = METTL3-14 (Homo sapiens, UniProt Q86U44); test: biochemical; design: with the full-length complex, the recombinant complex construct pFastBacDual-StrepII-GFP-TEV-METTL3-His-TEV-METTL14 was expressed; StrepII (N); GFP (N); TEV site (N); made in house; host or cells: baculovirus/Sf9 insect cells; settings: inhibition of catalytic activity of METTL3-14, binary FRET assay
Description: For determining the half maximal inhibitory concentration (IC50) with the full-length complex, the recombinant complex construct pFastBacDual-StrepII-GFP-TEV-METTL3-His-TEV-METTL14 was expressed using the baculovirus/Sf9 insect cell expression system and purified as described previously.[21]
The inhibitory potencies of the PROTACs for METTL3 were quantified by a homogeneous time-resolved fluorescence (HTRF)-based enzyme assay as previously described.[40]

[1] = biological target: T2, ternary complex CRBN/PROTAC/METTL3–14 (Homo sapiens, UniProt Q86U44+Q96SW2); test: FRET-based ternary complex formation assay (TCFA); assay type: binding; settings: for TCFA amplitude (mean ± SEM): Hook curve amplitude, fraction of the maximum of compound 16; for ECmax (nM) ± SD: PROTAC concentration at the maximum of the signal in the TCFA; for ECmax: TCFA, peak of the Hook curve
T2 construct: methyltransferase domains (MTD) of METTL3 (residues 354–580); His6 (N, cleaved yes); made in house; host or cells: METTL3-MTD/METTL14-MTD: baculovirus/Sf9; CRBN-TBD: E. coli Rosetta (DE3), co-expressed with BirA
Procedure: For protein expression, suspension cultures of Sf9 cells in […] medium (Thermo Fisher) were infected at a density of 2 × 10^6 mL^–1. […] The complex was further purified by size exclusion chromatography using a Superdex 200 Increase 10/300 GL column (Cytiva) in 20 mM Tris-Cl, pH 8.0, and 200 mM KCl. The complex was aliquoted and flash-frozen in liquid nitrogen and stored at −80 °C until further use.
Ternary complex formation between the PROTACs, METTL3, and CRBN was quantified by a homogeneous time-resolved fluorescence (HTRF)-based enzyme assay. […] Curves of titrations with the PROTACs were plotted in GraphPad Prism 9.5.1 and fitted with a Gaussian function, if appropriate. […] CRBN^TBD-Avi(biotin) was used at a final concentration of 10 nM. […] Anti-GST Eu^3+-labeled antibody (Cisbio, 61GSTKLB) was used at a final concentration of 0.8 nM. The final reaction volume was 20 μL in 50 mM HEPES (pH 7.5), 150 mM NaCl, 0.1% BSA, 100 mM KF. […] The ratio of the emissions [drawing 1] was considered for further analysis. […] The concentrations resulting in the maximum signal (ECmax) and the amplitudes of the Hook curves were determined from the parameters of the Gaussian fit (if appropriate) or as the coordinates of the data-point with the highest TR-FRET signal.
For the ternary complex formation assay (TCFA), one of the protein partners must have a GST-tag and the other a biotin-tag.

[2] = Cell viability assay (CellTiter-Glo) on MOLM-13; assay type: cell-based; settings: human, MOLM-13 cells, average of two biological replicates; for viability at 72 h, […]: 2.5 µM
Procedure: as §1
Cell viability was determined using a CellTiter-Glo luminescent cell viability assay (Promega) based on the detection of ATP according to the manufacturer’s instructions. 100 μL of the reagent was added to each well and incubated for 10 min at room temperature. […] Background luminescence value was obtained from wells containing the CellTiter-Glo reagent and medium without cells. The resulting data was analyzed in GraphPad Prism 9.

METTL14 = test: Cellular degradation assay (Western blot), METTL14 in MOLM-13; assay type: cell-based, human; settings: MOLM-13, 24 h, 2 μM compound
Procedure: as §1, §2

T2 sequence (Q86U44 354-580): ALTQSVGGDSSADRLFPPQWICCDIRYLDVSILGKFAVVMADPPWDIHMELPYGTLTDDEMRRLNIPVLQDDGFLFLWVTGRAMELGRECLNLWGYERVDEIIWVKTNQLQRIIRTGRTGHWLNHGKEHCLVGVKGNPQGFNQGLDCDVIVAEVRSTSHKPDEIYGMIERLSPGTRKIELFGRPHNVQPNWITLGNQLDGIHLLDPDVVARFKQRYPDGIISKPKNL
T2 sequence (Q9HCE5 107-395 partner limits assumed): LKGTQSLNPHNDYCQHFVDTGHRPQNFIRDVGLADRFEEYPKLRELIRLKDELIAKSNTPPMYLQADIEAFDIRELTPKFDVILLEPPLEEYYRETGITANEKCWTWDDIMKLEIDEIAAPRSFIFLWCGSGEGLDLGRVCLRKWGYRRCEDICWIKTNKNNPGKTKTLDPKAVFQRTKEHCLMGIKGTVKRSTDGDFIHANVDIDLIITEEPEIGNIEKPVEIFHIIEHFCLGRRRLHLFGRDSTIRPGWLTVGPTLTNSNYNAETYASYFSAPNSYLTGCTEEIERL
T2 sequence (Q96SW2 318-442): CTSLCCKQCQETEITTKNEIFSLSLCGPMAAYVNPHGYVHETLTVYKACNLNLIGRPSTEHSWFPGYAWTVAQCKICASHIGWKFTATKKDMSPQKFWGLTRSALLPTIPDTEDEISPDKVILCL
T1 sequence (Q86U44 2-580 limits assumed): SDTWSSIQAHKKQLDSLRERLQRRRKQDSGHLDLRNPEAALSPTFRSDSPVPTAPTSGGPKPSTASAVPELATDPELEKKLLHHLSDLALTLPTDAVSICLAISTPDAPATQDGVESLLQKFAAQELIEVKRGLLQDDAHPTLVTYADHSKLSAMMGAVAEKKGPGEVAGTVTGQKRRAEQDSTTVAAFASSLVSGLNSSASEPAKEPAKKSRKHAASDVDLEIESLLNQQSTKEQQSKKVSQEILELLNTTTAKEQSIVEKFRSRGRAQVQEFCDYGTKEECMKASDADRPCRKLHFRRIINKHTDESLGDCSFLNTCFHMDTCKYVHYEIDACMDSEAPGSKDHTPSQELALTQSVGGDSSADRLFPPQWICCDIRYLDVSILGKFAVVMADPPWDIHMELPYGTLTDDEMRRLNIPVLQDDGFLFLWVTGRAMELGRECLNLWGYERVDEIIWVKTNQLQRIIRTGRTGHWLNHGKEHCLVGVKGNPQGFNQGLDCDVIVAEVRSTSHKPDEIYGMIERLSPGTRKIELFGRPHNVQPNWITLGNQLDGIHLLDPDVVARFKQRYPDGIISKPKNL
T1 sequence (Q9HCE5 whole entry partner): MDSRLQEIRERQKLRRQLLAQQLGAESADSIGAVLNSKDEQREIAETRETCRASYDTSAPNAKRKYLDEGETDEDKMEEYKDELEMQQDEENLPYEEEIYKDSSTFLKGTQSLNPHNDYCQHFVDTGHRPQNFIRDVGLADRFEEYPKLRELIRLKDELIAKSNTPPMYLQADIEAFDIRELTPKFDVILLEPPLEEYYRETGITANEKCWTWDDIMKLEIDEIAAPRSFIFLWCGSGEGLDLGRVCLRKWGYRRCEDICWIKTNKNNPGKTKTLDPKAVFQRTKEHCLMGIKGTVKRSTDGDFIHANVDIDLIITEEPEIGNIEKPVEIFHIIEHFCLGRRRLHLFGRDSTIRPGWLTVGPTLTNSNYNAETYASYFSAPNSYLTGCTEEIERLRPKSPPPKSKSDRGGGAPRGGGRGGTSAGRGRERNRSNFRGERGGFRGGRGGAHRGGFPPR
METTL3-14, sequence (Q86U44 whole entry): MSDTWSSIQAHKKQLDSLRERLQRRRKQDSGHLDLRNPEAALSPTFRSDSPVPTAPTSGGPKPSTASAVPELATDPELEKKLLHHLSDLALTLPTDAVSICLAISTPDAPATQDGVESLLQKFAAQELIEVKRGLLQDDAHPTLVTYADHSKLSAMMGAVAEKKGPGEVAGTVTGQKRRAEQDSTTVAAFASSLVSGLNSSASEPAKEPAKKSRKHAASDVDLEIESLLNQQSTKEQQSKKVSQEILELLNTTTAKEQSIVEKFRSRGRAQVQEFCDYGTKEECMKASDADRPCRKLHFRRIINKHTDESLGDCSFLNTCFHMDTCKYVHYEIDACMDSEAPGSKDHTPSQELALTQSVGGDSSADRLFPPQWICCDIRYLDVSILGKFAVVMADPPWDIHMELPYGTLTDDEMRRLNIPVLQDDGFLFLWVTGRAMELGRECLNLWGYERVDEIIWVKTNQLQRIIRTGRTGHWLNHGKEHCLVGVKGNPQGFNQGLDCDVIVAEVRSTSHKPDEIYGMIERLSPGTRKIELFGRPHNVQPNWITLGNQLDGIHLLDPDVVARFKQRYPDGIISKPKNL
METTL3-14, sequence (Q9HCE5 whole entry, further chain): as the sequence (Q9HCE5 whole entry partner) above

Row | SMILES | MOLM-13 West. blot at 24h 2 μM comp conc. Degradation (%) of METTL3 (METTL3) | IC50 (METTL3-14) | TCFA amplitude (mean ± SEM) [1] | ECmax (nM) ± SD [1] | ECmax [1] | viability at 72 h, 10 µM [2] | MOLM-13 West. blot at 24h 2 μM comp conc. Degradation (%) of METTL14 (METTL14) | viability at 72 h, 0.6 µM [2] | viability at 72 h, 1.25 µM [2] | viability at 72 h, […] [2] | viability at 72 h, 5 µM [2]
1 | CC1(C)CCN(Cc2cc(F)c(N3CC(=O)NC4(CCN(c5cc(NCCCNC(=O)CCCCCCCCNc6cccc7c6CN(C6CCC(=O)NC6=O)C7=O)ncn5)CC4)C3)cc2F)CC1 (centres unmarked) [Compound 10] | 18 ± 6% | 66 ± 10 nM | 1.0 ± 0.0 | 200 ± 110 nM | below 1 μM | 86.6% | 18 ± 16% | – | – | – | –
2 | CC1(C)CCN(Cc2cc(F)c(N3CC(=O)NC4(CCN(c5cc(NCCCNC(=O)CCCCCCCCCCNc6cccc7c6CN(C6CCC(=O)NC6=O)C7=O)ncn5)CC4)C3)cc2F)CC1 (centres unmarked) [Compound 11] | / (Degradation <10% or stabilization) | 300 ± 40 nM | 0.3 ± 0.0 | 910 ± 40 nM | below 1 μM | 84.6% | 17 ± 22% | – | – | – | –
3 | CC1(C)CCN(Cc2cc(F)c(N3CC(=O)NC4(CCN(c5cc(NCCCNC(=O)CCCCCCCCn6cc(CNc7cccc8c7C(=O)N(C7CCC(=O)NC7=O)C8=O)nn6)ncn5)CC4)C3)cc2F)CC1 (centres unmarked) [Compound 12] | / (Degradation <10% or stabilization) | 67 ± 21 nM | 0.7 ± 0.1 | 320 ± 160 nM | below 1 μM | 94.3% | 11 ± 27% | – | – | – | –
4 | CC1(C)CCN(Cc2cc(F)c(N3CC(=O)NC4(CCN(c5cc(NCCCNC(=O)CCCCCCCCCCn6cc(CNc7cccc8c7C(=O)N(C7CCC(=O)NC7=O)C8=O)nn6)ncn5)CC4)C3)cc2F)CC1 (centres unmarked) [Compound 13] | 19 ± 20% | 220 ± 40 nM | 0.8 ± 0.0 | 1800 ± 250 nM | – | – | 19 ± 13% | – | – | – | –
5 | CC1(C)CCN(Cc2cc(F)c(N3CC(=O)NC4(CCN(c5cc(NCc6cccc(CNC(=O)CCCCCNc7cccc8c7C(=O)N(C7CCC(=O)NC7=O)C8=O)c6)ncn5)CC4)C3)cc2F)CC1 (centres unmarked) [Compound 15] | / (Degradation <10% or stabilization) | 33 ± 4 nM | 0.8 ± 0.1 | 640 ± 30 nM | – | 84.6% | / (Degradation <10% or stabilization) | 91.2% | 94.8% | 97.2% | 89.4%
6 | CC1(C)CCN(Cc2cc(F)c(N3CC(=O)NC4(CCN(c5cc(NCc6cccc(CNC(=O)CCCCCCCCNc7cccc8c7CN(C7CCC(=O)NC7=O)C8=O)c6)ncn5)CC4)C3)cc2F)CC1 (centres unmarked) [Compound 16] | 24 ± 14% | 67 ± 11 nM | 1.0 ± 0.0 | 430 ± 180 nM | – | 103% | 39 ± 13% | – | – | – | –
7 | CC1(C)CCN(Cc2cc(F)c(N3CC(=O)NC4(CCN(c5cc(NCc6cccc(CNC(=O)CCCCCCCCCCNc7cccc8c7CN(C7CCC(=O)NC7=O)C8=O)c6)ncn5)CC4)C3)cc2F)CC1 (centres unmarked) [Compound 17] | / (Degradation <10% or stabilization) | 160 ± 20 nM | 1.0 ± 0.0 | 920 ± 160 nM | – | 106% | 13 ± 6% | 106% | 109% | 112% | 106%
8 | CC1(C)CCN(Cc2cc(F)c(N3CC(=O)NC4(CCN(c5cc(NCc6cccc(CNC(=O)CCn7cc(CNc8cccc9c8C(=O)N(C8CCC(=O)NC8=O)C9=O)nn7)c6)ncn5)CC4)C3)cc2F)CC1 (centres unmarked) [Compound 18] | 19 ± 13% | 14 ± 3 nM | 0.6 ± 0.1 | 80 ± 0 nM | – | 105% | 30 ± 12% | 101% | 105% | 104% | 102%
9 | CC1(C)CCN(Cc2cc(F)c(N3CC(=O)NC4(CCN(c5cc(NCc6cccc(CNC(=O)CCCCCCCCn7cc(CNc8cccc9c8C(=O)N(C8CCC(=O)NC8=O)C9=O)nn7)c6)ncn5)CC4)C3)cc2F)CC1 (centres unmarked) [Compound 19] | 33% and 33 ± 17% | 88 ± 21 nM | 0.9 ± 0.1 | 920 ± 150 nM | – | 87.6% | 40% and 40 ± 16% | 104% | 104% | 102% | 97.1%
10 | CC1(C)CCN(Cc2cc(F)c(N3CC(=O)NC4(CCN(c5cc(NCC6CCN(C(=O)CCCNc7ccc8c(c7)C(=O)N(C7CCC(=O)NC7=O)C8=O)CC6)ncn5)CC4)C3)cc2F)CC1 (centres unmarked) [Compound 23] | 50% and 50 ± 12% | 33 ± 12 nM | 1.0 ± 0.1 | 160 ± 80 nM | – | 78.2% | 57 ± 8% | 95.3% | 93.3% | 95.2% | 87.3%
11 | CC1(C)CCN(Cc2cc(F)c(N3CC(=O)NC4(CCN(c5cc(NCC6CCN(C(=O)CCCCCCCNc7cccc8c7C(=O)N(C7CCC(=O)NC7=O)C8=O)CC6)ncn5)CC4)C3)cc2F)CC1 (centres unmarked) [Compound 25] | 20 ± 9% | 110 ± 10 nM | 1.2 ± 0.1 | 1200 ± 120 nM | – | 83.2% | 36 ± 7% | 102% | 94.8% | 92.1% | 87%
